The source made the active and inactive calls. The rule behind the calls is not given here.
Tests used:
[1] = species: Homo sapiens; test: Effect on gluconate gradient-induced Cl(-) efflux in NHBE cells at 25 uM; format: functional, cell-based
[2] = species: Homo sapiens; test: Effect on airway surface liquid pH in IL13-stimulated human CFBE at 25 uM by pH-sensitive fluorophore BCECF based fluorescence based assay; format: functional
[3] = species: Homo sapiens; test: Inhibition of ENaC in human bronchial epithelial cells assessed as effect on short-circuit current at 25 uM pre-incubated for 30 mins
[4] = target: T1, Pendrin (Homo sapiens) (UniProt O43511); test: Inhibition of pendrin in human bronchial epithelial cells assessed as increase in airway surface liquid depth at 25 uM by rhodamine B-dextran fluorescence based confocal microscopy (reference value: -16 um)
T1 sequence (whole entry): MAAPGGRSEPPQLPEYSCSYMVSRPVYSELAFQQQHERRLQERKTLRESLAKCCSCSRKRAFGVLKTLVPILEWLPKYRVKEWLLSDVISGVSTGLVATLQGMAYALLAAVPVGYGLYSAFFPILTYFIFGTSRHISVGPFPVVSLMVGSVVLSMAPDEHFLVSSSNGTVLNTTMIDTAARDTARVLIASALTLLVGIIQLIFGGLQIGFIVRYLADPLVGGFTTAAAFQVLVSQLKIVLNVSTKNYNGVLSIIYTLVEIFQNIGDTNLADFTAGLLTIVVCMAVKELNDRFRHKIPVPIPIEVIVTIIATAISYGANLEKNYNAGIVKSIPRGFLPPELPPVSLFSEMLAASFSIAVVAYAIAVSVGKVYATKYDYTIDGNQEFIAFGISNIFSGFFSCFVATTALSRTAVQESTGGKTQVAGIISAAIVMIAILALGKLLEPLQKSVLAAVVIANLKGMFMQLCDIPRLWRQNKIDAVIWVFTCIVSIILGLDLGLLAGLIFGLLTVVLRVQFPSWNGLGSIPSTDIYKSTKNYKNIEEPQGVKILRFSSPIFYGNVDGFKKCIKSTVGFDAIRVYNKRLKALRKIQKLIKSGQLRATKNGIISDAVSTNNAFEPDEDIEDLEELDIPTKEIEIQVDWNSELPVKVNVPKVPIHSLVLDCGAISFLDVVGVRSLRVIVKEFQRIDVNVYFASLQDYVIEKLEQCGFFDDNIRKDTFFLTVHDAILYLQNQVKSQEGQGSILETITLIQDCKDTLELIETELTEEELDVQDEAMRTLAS

[5] = target: T2, Chloride anion exchanger (Homo sapiens) (UniProt P40879); test: Inhibition of human SLC26A3 expressed in COS7 co-expressing EYFP-HIF assessed as reduction in SCN gradient
T2 sequence (whole entry): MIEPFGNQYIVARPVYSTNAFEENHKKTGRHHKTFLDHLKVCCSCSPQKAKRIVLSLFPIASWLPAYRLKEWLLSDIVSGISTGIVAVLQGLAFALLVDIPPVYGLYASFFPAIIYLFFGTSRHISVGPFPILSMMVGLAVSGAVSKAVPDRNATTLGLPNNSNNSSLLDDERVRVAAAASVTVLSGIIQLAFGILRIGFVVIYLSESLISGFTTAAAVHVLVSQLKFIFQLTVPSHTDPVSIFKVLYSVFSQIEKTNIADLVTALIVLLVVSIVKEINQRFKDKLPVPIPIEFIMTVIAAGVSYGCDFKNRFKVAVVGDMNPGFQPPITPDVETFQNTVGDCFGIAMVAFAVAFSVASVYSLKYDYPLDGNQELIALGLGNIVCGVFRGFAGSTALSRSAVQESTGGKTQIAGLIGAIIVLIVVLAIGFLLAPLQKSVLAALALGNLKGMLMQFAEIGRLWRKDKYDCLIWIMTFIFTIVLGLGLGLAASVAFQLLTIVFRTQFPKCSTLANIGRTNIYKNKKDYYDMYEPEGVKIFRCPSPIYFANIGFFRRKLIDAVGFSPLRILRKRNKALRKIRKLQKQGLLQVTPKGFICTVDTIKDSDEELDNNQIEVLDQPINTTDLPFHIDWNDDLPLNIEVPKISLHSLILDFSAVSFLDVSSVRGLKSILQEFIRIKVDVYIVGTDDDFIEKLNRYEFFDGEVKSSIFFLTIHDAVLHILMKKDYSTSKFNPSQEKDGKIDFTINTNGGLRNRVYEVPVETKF

[6] = tested on: Mus musculus; test: Potentiation of 20 mg/kg, ip furosemide-induced acute diuretic action in CD1 mouse assessed as effect on urine pH at 10 mg/kg, ip relative to control; format: functional, organism-based
[7] = tested on: Mus musculus; test: Potentiation of 20 mg/kg, ip furosemide-induced acute diuretic action in CD1 mouse assessed as increase in urinary Na+ excretion at 50 mg/kg, ip measured at 3 hrs relative to control; format: functional, organism-based
[8] = tested on: Mus musculus; test: Potentiation of 20 mg/kg, ip furosemide-induced acute diuretic action in CD1 mouse assessed as induction of metabolic alkalosis at 10 mg/kg, ip; format: functional, organism-based
[9] = target: T3, Pendrin (Mus musculus) (UniProt Q9R155); test: Inhibition of mouse pendrin expressed in FRT cells co-expressing YFP-HIF assessed as reduction in pendrin-mediated exchange of Cl(-) with NO3(-) by pH-sensitive fluorescent probe BCECF-AM based fluorescence assay relative to control; format: cell-based
T3 sequence (whole entry): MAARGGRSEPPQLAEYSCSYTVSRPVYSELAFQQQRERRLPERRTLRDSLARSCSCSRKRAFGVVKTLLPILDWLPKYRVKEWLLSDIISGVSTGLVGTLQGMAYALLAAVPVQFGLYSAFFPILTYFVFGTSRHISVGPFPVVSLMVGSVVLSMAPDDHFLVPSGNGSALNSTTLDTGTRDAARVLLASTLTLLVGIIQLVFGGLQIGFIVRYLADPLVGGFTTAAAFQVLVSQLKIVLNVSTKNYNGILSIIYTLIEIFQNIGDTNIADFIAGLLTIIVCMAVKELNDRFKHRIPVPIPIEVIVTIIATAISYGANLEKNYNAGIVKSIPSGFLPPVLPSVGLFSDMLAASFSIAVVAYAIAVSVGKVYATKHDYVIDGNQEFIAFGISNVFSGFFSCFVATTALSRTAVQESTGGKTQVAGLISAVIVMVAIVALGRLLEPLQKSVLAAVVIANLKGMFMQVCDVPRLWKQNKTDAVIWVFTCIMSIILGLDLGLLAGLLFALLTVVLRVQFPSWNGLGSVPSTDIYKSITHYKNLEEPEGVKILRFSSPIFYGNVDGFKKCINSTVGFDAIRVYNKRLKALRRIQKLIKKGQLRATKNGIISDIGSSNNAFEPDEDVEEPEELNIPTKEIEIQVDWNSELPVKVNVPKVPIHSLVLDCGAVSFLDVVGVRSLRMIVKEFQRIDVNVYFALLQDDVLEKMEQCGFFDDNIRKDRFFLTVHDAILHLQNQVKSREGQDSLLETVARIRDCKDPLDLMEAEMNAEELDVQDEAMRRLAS

[10] = tested on: Mus musculus; test: Potentiation of 20 mg/kg, ip furosemide-induced acute diuretic action in CD1 mouse assessed as effect on urinary K+ excretion at 10 mg/kg, ip measured at 3 hrs relative to control; format: functional, organism-based

Cn1nc(COc2cccc(F)c2)c2c1CCN(C(=O)Nc1ccc(Cl)cc1)C2
Activity [1]: inactive | Activity [2]: inactive | inhibition [3]: inactive | Activity [4]: -8 µm | inhibition [5]: inactive

Cc1n[nH]c(-c2cc(S(=O)(=O)NC3CCCc4ccccc43)c(C)s2)c1C (stereo not given)
Activity [6]: inactive | Activity [7]: Active | Activity [8]: Active | inhibition [9]: Dose-dependent effect | Activity [10]: inactive
